The subject of series [1] is T. gondii. As to the kind of experiment: T. gondii cell proliferation. In kind it is cell-based, Toxoplasma gondii.
The test system of series [2] is HL-60 (neutrophil) cells. Nature of the series: Human cell growth inhibition assay, HL-60. The settings on record: concentrations up to 10 μM.
Series [3] has as its system CRL-8155 (lymphocytic) cells. As to the kind of experiment: Human cell growth inhibition assay, CRL-8155. The settings on record: concentrations up to 10 μM.
The test system of series [4] is human kinases. In kind it is biochemical.
Where [5] appears, read: generally observed, human kinase panel of Table 4.

Where two headings read alike, the source gives them in different places. Where only a bound is given, the exact number is not on record here.

Take `CC(C)(C)n1ncc2c(N)ncnc21.Cl` [Compound 1b]: the “block of T. gondii cell invasion/proliferation” value in series [1] is listed as “do not block T. gondii cell invasion/proliferation”.
With `Cl.Nc1ncnc2c1cnn2CC1CCNCC1` [Compound 1n], the “block of T. gondii cell invasion/proliferation” value in series [1] is “do not block T. gondii cell invasion/proliferation”.
Take `COc1ccc2cc(-c3nn(C(C)C)c4ncnc(N)c34)ccc2c1.Cl` [Compound 14a]: in series [2], the “inhibition of cell growth, HL-60” value is reported as “no inhibition of cell growth”. The “inhibition of cell growth, CRL-8155” value in series [3] is recorded as “no inhibition of cell growth”.
Consider `COc1ccc2cc(-c3nn(CC4CCNCC4)c4ncnc(N)c34)ccc2c1.Cl` [Compound 14n], for which the “differences between IC50 values for TgCDPK1 over human kinases” value (from here on “differences between IC50 values”) in series [4] (setting [5]) was more than 1000 fold. Besides, the “inhibition of cell growth, HL-60” value in series [2] is recorded as “no inhibition of cell growth”. Also, the “inhibition of cell growth, CRL-8155” value in series [3] is “no inhibition of cell growth”.
Regarding `CCOc1ccc2cc(-c3nn(C4CCN(C)CC4)c4ncnc(N)c34)ccc2c1.Cl` [Compound 15h], in series [4] (setting [5]), the “differences between IC50 values” value is listed as more than 1000 fold. Further, in series [2], the “inhibition of cell growth, HL-60” value is “no inhibition of cell growth”. For the same molecule, the “inhibition of cell growth, CRL-8155” value in series [3] is given as “no inhibition of cell growth”.
With `CCOc1ccc2cc(-c3nn(CC4CCNCC4)c4ncnc(N)c34)ccc2c1.Cl` [Compound 15n], in series [4], the “differences between IC50 values” value is recorded as more than 1000 fold. Besides, the “inhibition of cell growth, HL-60” value in series [2] is “no inhibition of cell growth”. Besides, the “inhibition of cell growth, CRL-8155” value in series [3] is listed as “no inhibition of cell growth”.
As for `CCOc1ccc2cc(-c3nn(CC4CCN(C)CC4)c4ncnc(N)c34)ccc2c1.Cl` [Compound 15o], in series [4] (setting [5]), the “differences between IC50 values” value was more than 1000 fold.
As to `CCOc1ccc2cc(-c3nn(CC4CCNCC4)c4ncnc(N)c34)ccc2n1.Cl` [Compound 16n], the “differences between IC50 values” value in series [4] (setting [5]) was more than 1000 fold. The “inhibition of cell growth, HL-60” value in series [2] was “no inhibition of cell growth”. In addition, in series [3], the “inhibition of cell growth, CRL-8155” value is reported as “no inhibition of cell growth”.

For the origin of these results see paper PMC3306180 (Journal of Medicinal Chemistry, 2012).
